Measurements published in patent US20250099430A1, “PREVENTION OR TREATMENT OF SLEEP DISORDERS USING DEXMEDETOMIDINE FORMULATION” (BioXcel Therapeutics, Inc., priority 2014, published 2025).
Values joined by “and” are separate entries in the source; they are usually repeats but may differ in a detail not shown here. Equal entries are not always repeated. “Also recorded” adds a separate entry of the source.

System: Wistar rats
Test: Sleep promoting properties in Wistar rats, video monitoring of home cage activity (total sleep time, latency to sleep, number of sleep episodes)
Assay type: in vivo
Details: for Total Sleep time: 180 min recording
Experimental: Sublingual dexmedetomidine formulation of present invention was tested in rats for its ability to increase the amount of sleep or decrease sleep interruption or both without undesired effects. Test animals' activity was continuously monitored by using a video camera overhead and data analysed for latency of sleep, total sleep time and number of sleep episodes by using the NoldusEthovision-XT 11.
Male Wistar rats were approximately of the weight 180 g-220 g and age of about 5-7 weeks old. Animals were numbered and kept in acclimatization for a period of 5-7 days before the initiation of the experiment. All the experiments on animals were conducted in accordance with the guidelines of the Committee for the Purpose of Control and Supervision of Experiments on Animals (CPCSEA), Goveemment of India the Association for Assessment and Accreditation of Laboratory Animal Care intemational (AAALAC).
Recording Environment: Animals were housed group wise (three animals per cage) within a microisolator cage modified with an inserted polycarbonate filter-top riser to allow more vertical headroom. Animals were maintained on the normal rodent chow ad libitum and given free access to fresh autoclaved potable drinking water. Animals were kept in a controlled environmental condition with 22±3° C. temperature, 50±20% humidity, a light dark cycle of 12 hours each and 15-20 fresh air changes per hour.
Animal Groups: Wistar rats were randomly divided into different groups, each containing 6 animals. The study groups were divided as normal control group, vehicle control group, test compound groups and reference compound group.
Animals were weight once at randomization and each day thereafter. The animals were studied from day 1 till day 9. […] On day 3, animals were dosed with test compounds and respiratory parameters such as tidal volume, frequency of respiration: heart rate and blood pressure were recorded. On day 5 and day 6, animals were trained on the rotarod apparatus (4-40 rpm for 300 s). On day 7, animals were administered with test compounds and motor coordination was tested on rotarod at 3, 10, 17, 24 and 30 minutes post administration to establish a temporal scale of loss of motor activity and drowsiness. On day 9, animals were dosed with test compounds and blood was collected at 15, 30, 60 and 120 min post sublingual dosing to estimate plasma drug concentration of dexmedetomidine. All the animals were euthanized by CO2 inhalation on day 9. The animal in the satellite groups was dosed with test compounds and blood was collected on day 0 at 15, 30, 60, and 120 min post sublingual dosing to estimate plasma drug concentration of dexmedetomidine after first drug exposure.
The normal control group received no treatment: vehicle control group received 0.9% saline water; the test group received compound (dexmedetomidine), administered sublingually in different doses (dose 1-5.14 μg/kg of body weight, dose 2-10 μg/kg of body weight, dose 3-20 μg/kg of body weight, dose 4-30 μg/kg of body weight and dose 5-40 μg/kg of body weight) and also administered parenterally (dose 6-1.5 μg kg of body weight); and the reference compound (Zolpidem) was administered orally in dose of 30 mg/kg of body weight. The treatment was given such that no rat received the same treatment twice.
Total sleep time, latency to sleep and number of sleep episodes were measured: After administration of each dose to each group of animal, the latency to sleep, total sleep time and sleep episodes was recorded.
One way ANOVA test was applied for the comparison of the data from different groups for total sleep time, latency to sleep and number of sleep episodes.

[1] = Table 2, Zolpidem (30 mg/kg, p.o.)
[2] = group mean, Zolpidem (30 mg/kg), orally
[3] = individual animals, Zolpidem (30 mg/kg), orally
[4] = Table 2, Dose 1 (5.14 μg/kg, SL)
[5] = Table 2, Dose 6 (1.5 μg/kg, I.V.)
[6] = group mean, Dose 1 (5.14 μg/kg Dexmedetomidine SL)
[7] = group mean, Dose 2 (10 μg/kg Dexmedetomidine SL)
[8] = group mean, Dose 3 (20 μg/kg Dexmedetomidine SL)
[9] = group mean, Dose 4 (30 μg/kg Dexmedetomidine SL)
[10] = group mean, Dose 5 (40 μg/kg Dexmedetomidine SL)
[11] = group mean, Dose 6 (1.5 μg/kg Dexmedetomidine I.V.)
[12] = individual animals, Dose 1 (5.14 μg/kg Dexmedetomidine SL)
[13] = individual animals, Dose 2 (10 μg/kg Dexmedetomidine SL)
[14] = individual animals, Dose 3 (20 μg/kg Dexmedetomidine SL)
[15] = individual animals, Dose 4 (30 μg/kg Dexmedetomidine SL)
[16] = individual animals, Dose 5 (40 μg/kg Dexmedetomidine SL)
[17] = individual animals, Dose 6 (1.5 μg/kg Dexmedetomidine I.V.)
[18] = parenteral dexmedetomidine (1.5 μg/kg, p.o.), compared to vehicle control

With `Cc1ccc(-c2nc3ccc(C)cn3c2CC(=O)N(C)C)cc1` [Zolpidem] the “Latency to Sleep (Mean and SEM)” value [1] was 27.0, the “Number of Sleep Episodes (Mean and SEM)” value [1] was 3.83 and the “Total sleep time normalized to vehicle” value [1] was 183.8. The “Total Sleep Time (total duration of sleep in 180 min.), result in words” value (Zolpidem at the standard dose, compared to NC and Vehicle control) was “significant increase”, the “Latency to Sleep (Time of sleep onset), result in words” value (from here on “Latency to Sleep (Time of sleep onset)”) (Zolpidem, compared to normal and vehicle control) was “reduction in the sleep latency” and the “Latency to Sleep” value [2] was 27.00. The “Number of Sleep Episodes” value [2] was 3.83, the “Total Sleep time Normalized to Vehicle*” value [2] was 183.82 and the “Total Sleep time” value [2] was 87.00 min. For the same compound, the “Latency to Sleep” value [3] was 24 (2×) and 28 and 26 and 23 and 37, the “Number of Sleep Episodes” value [3] was 3 (3×) and 6 and 4 (2×) and the “Total Sleep time Normalized to Vehicle*” value [3] was 247 and 260 and 167 and 205 and 114 and 110. For the same compound, the “Total Sleep time” value [3] was 117 min and 123 min and 79 min and 97 min and 54 min and 52 min.
With `Cc1cccc([C@H](C)c2cnc[nH]2)c1C` [Dexmedetomidine, 5-[(1 S)-1-(2,3-dimethylphenyl)ethyl]-1 H-imidazole] the “Latency to Sleep (Mean and SEM)” value [4] was 63.2, the “Number of Sleep Episodes (Mean and SEM)” value [4] was 2.33 and the “Total Sleep Time (Mean and SEM)” value [4] was 100.7. The “Latency to Sleep (Mean and SEM)” value (Table 2, Dose 2 (10 μg/kg, SL)) was 21.0, the “Number of Sleep Episodes (Mean and SEM)” value (Table 2, Dose 2 (10 μg/kg, SL)) was 4.50 and the “Total Sleep Time (Mean and SEM)” value (Table 2, Dose 2 (10 μg/kg, SL)) was 130.1. For the same compound, the “Latency to Sleep (Mean and SEM)” value (Table 2, Dose 3 (20 μg/kg, SL)) was 12.7, the “Number of Sleep Episodes (Mean and SEM)” value (Table 2, Dose 3 (20 μg/kg, SL)) was 4.00 and the “Total Sleep Time (Mean and SEM)” value (Table 2, Dose 3 (20 μg/kg, SL)) was 150.2. For the same compound, the “Latency to Sleep (Mean and SEM)” value (Table 2, Dose 4 (30 μg/kg, SL)) was 13.2, the “Number of Sleep Episodes (Mean and SEM)” value (Table 2, Dose 4 (30 μg/kg, SL)) was 2.50 and the “Total Sleep Time (Mean and SEM)” value (Table 2, Dose 4 (30 μg/kg, SL)) was 143.1. For the same compound, the “Latency to Sleep (Mean and SEM)” value (Table 2, Dose 5 (40 μg/kg, SL)) was 16.7, the “Number of Sleep Episodes (Mean and SEM)” value (Table 2, Dose 5 (40 μg/kg, SL)) was 2.67 and the “Total Sleep Time (Mean and SEM)” value (Table 2, Dose 5 (40 μg/kg, SL)) was 169.7. For the same compound, the “Latency to Sleep (Mean and SEM)” value [5] was 25.4, the “Number of Sleep Episodes (Mean and SEM)” value [5] was 2.33 and the “Total Sleep Time (Mean and SEM)” value [5] was 137. The “Latency to Sleep (Time of sleep onset)” value (dexmedetomidine dosed sublingually at 10, 20, 30 & 40 μg/kg, compared to vehicle control) was “significantly lowered; also recorded: significantly reduced”, the “Number of sleep episodes, result in words” value (dexmedetomidine dosed sublingually, from 10, 20, 30 & 40 μg/kg, compared to vehicle control) was “gradually decreased” and the “Latency to Sleep” value [6] was 63.17. The “Number of Sleep Episodes” value [6] was 2.33, the “Total Sleep time Normalized to Vehicle*” value [6] was 100.71 and the “Total Sleep time” value [6] was 47.67 min. For the same compound, the “Latency to Sleep” value [7] was 21.00, the “Number of Sleep Episodes” value [7] was 4.50 and the “Total Sleep time Normalized to Vehicle*” value [7] was 130.13. For the same compound, the “Total Sleep time” value [7] was 103.67 min, the “Latency to Sleep” value [8] was 12.67 and the “Number of Sleep Episodes” value [8] was 4.00. For the same compound, the “Total Sleep time Normalized to Vehicle*” value [8] was 150.21, the “Total Sleep time” value [8] was 119.67 min and the “Latency to Sleep” value [9] was 13.17. The “Number of Sleep Episodes” value [9] was 2.50, the “Total Sleep time Normalized to Vehicle*” value [9] was 143.10 and the “Total Sleep time” value [9] was 114.00 min. For the same compound, the “Latency to Sleep” value [10] was 16.67, the “Number of Sleep Episodes” value [10] was 2.67 and the “Total Sleep time Normalized to Vehicle*” value [10] was 169.67. For the same compound, the “Total Sleep time” value [10] was 135.17 min, the “Latency to Sleep” value [11] was 25.40 and the “Number of Sleep Episodes” value [11] was 2.33. For the same compound, the “Total Sleep time Normalized to Vehicle*” value [11] was 136.98, the “Total Sleep time” value [11] was 64.83 min and the “Latency to Sleep” value [12] was 97 and 101 and 87 and 94 and 0 (2×). The “Number of Sleep Episodes” value [12] was 2 (2×) and 5 (2×) and 0 (2×), the “Total Sleep time Normalized to Vehicle*” value [12] was 184 and 203 and 125 and 93 and 0 (2×) and the “Total Sleep time” value [12] was 87 min and 96 min and 59 min and 44 min and 0 min (2×). For the same compound, the “Latency to Sleep” value [13] was 18 (2×) and 29 and 21 and 24 and 16, the “Number of Sleep Episodes” value [13] was 5 (4×) and 4 and 3 and the “Total Sleep time Normalized to Vehicle*” value [13] was 128 and 102 and 108 and 141 and 152 and 151. The “Total Sleep time” value [13] was 102 min and 81 min and 86 min and 112 min and 121 min and 120 min, the “Latency to Sleep” value [14] was 15 (2×) and 12 and 13 and 10 and 11 and the “Number of Sleep Episodes” value [14] was 5 and 3 and 4 (4×). The “Total Sleep time Normalized to Vehicle*” value [14] was 133 and 174 and 143 and 142 and 181 and 128, the “Total Sleep time” value [14] was 106 min and 139 min and 114 min and 113 min and 144 min and 102 min and the “Latency to Sleep” value [15] was 11 (2×) and 23 and 8 and 10 and 16. For the same compound, the “Number of Sleep Episodes” value [15] was 4 and 2 (4×) and 3, the “Total Sleep time Normalized to Vehicle*” value [15] was 162 and 127 and 158 (2×) and 136 and 118 and the “Total Sleep time” value [15] was 129 min and 101 min and 126 min (2×) and 108 min and 94 min. For the same compound, the “Latency to Sleep” value [16] was 16 (2×) and 17 and 18 and 13 and 20, the “Number of Sleep Episodes” value [16] was 2 (3×) and 4 and 3 (2×) and the “Total Sleep time Normalized to Vehicle*” value [16] was 181 and 134 and 186 and 190 and 159 and 168. For the same compound, the “Total Sleep time” value [16] was 144 min and 107 min and 148 min and 151 min and 127 min and 134 min, the “Latency to Sleep” value [17] was 18 and 27 and 26 and 24 and 85 and 32 and the “Number of Sleep Episodes” value [17] was 3 (3×) and 1 and 2 (2×). For the same compound, the “Total Sleep time Normalized to Vehicle*” value [17] was 180 and 184 and 95 and 129 and 177 and 57, the “Total Sleep time” value [17] was 85 min and 87 min and 45 min and 61 min and 84 min and 27 min and the “Latency to Sleep (Time of sleep onset)” value [18] was “significantly lowered”. The “Number of sleep episodes, result in words” value [18] was “gradually decreased”, the “Total sleep time, result in words” value (sublingual dexmedetomidine at dose range of 10 to 40 μg/kg) was “no significant increase; also recorded: not significantly affecting” and the “Total Sleep Time (total duration of sleep in 180 min.), result in words” value (sublingual dexmedetomidine, 40 μg/kg) was “significant increase”.
